Measurements taken from patent US11447484B2, “Cyclic compound having dopamine D3 receptor antagonistic effect” (Shionogi & Co., Ltd., priority 2018, dated 2022).

Columns and labels:
[1] = molecular target: human recombinant D3 receptor (Homo sapiens (Human), UniProt P35462); assay: Test of binding inhibition for dopamine D3 receptor; conditions: Jump-In HEK cell membranes, 2 nM [3H]-Methylspiperone, 120 min at 25° C.; read-out: hD3_Ki
Experimental: Test Example 1: Test of Binding Inhibition for Dopamine D3 Receptor
(§1) (Experimental Conditions)
Cell membranes: Jump-In HEK cell membranes expressing human recombinant D3 receptor (4 μg/well)
(§2) Buffer solution: 50 mM Tris-HCl (35409-45, Nacalai Tesque) (pH 7.4) containing 120 mM NaCl (31320-05, Nacalai Tesque), 1 mM MgCl2.6H2O (20909-55, Nacalai Tesque), 5 mM KCl (28514-75, Nacalai Tesque) and 2 mM CaCl2 (067-31, NAKARAI CHEMICALS, LTD.)
Radioligand: (final concentration) 2 nM [^3H]-Methylspiperone ([^3H—N-methyl-]-Methylspiperone, NET-856, 83.8 Ci/mmol, PerkinElmer)
Non-specific ligand: (final concentration) 10 μM Butaclamol [(+)-Butaclamol Hydrochloride, D033, Sigma]
(§3) SPA beads solution: SPA beads [WGA PVT SPA Scintillation Beads, RPNQ0001 (500 mg), RPNQ0060 (2 g), PerkinElmer] (0.2 mg/well)
(§4) Incubation time and temperature: 120 min at 25° C.
(§5) Butaclamol or the compounds of the present invention were weighed and DMSO was added to make a 10 mM solution. This solution was diluted to each concentration.
[^3H]-Methylspiperone was weighed and the buffer solution was added to make a 6 nM solution.
(§6) SPA beads were weighed and stirred in water to make a 50 mg/mL solution. Using this solution, a mixture with the cell membranes was prepared.
(§7) 225 nL of the solutions of the non-specific ligand or the compounds of the present invention at each concentration (in case of vehicle, final concentration 0.3% DMSO) were added in each well of a 384-well white/clear bottom microplate (3706, Corning). Jump-In HEK Cell membranes (final reaction amount: 4 μg protein/well), the SPA beads solution (final reaction amount: 0.2 mg/well) and the buffer solution were mixed and the mixed solution was left still for 1 hour or more at 4° C. Then, 50 μL of the mixture was added to each well of the plate. In addition, 25 μL of 6 nM [^3H]-Methylspiperone (final concentration: 2 nM) was added to each well. The plate was sealed by putting TopSeal-A 96/384 well (6050185, PerkinElmer, Inc.) on the top of the plate, mixed using stirring deaerator (Well Tornado, FK-62, Sakaki-elc.) and incubated for 120 min at 25° C. After incubation, the radioactivity of [^3H]-Methylspiperone which was bonded to D3 receptor was determined by liquid scintillation counter (1450 Microbeta, PerkinElmer) in each well. Non-specific binding was calculated based on the radioactivity of [^3H]-Methylspiperone in the presence of 10 μM non-labeled Butaclamol. The total binding was calculated using the radioactivity of [^3H]-Methylspiperone in the absence of the compounds of the present invention (vehicle). The Ki values were calculated from dose-response curves.
(§8) Binding activities of the compounds of the present invention were calculated from the following Binding Inhibition Rate (%): Inhibition Rate(%)=[1−(c−a)/(b−a)]×100 • a: Average cpm of non-specific binding • b: Average cpm of total binding • c: Cpm in the presence of each test compound

[2] = molecular target: human recombinant D2 receptor (Homo sapiens (Human), UniProt P14416); assay: Test of binding inhibition for dopamine D2 receptor; conditions: Jump-In HEK cell membranes, 1.2 nM [3H]-Methylspiperone, 120 min at 25° C.; read-out: hD2_Ki
Experimental: Test Example 2: Test of Binding Inhibition for Dopamine D2 Receptor
as §1
Cell membranes: Jump-In HEK cell membranes expressing human recombinant D2 receptor (2 μg/well)
as §2
Radioligand: (final concentration) 1.2 nM [^3H]-Methylspiperone ([^3H—N-methyl-]-Methylspiperone, NET-856, 83.8 Ci/mmol, PerkinElmer)
Non-specific ligand: (final concentration) 10 μM Butaclamol [(+)-Butaclamol Hydrochloride, D033; Sigma]
as §3, §4, §5
[^3H]-Methylspiperone was weighed and the buffer solution was added to make a 3.6 nM solution.
as §6
as §7, with “amount: 2” for “amount: 4”, “SPA bead” for “SPA beads”, “of 3.6” for “of 6”, “concentration: 1.2” for “concentration: 2”, “(6050185, PerkinElmer)” for “(6050185, PerkinElmer, Inc.)”, “to D2” for “to D3”
as §8

Sequence of human recombinant D2 receptor (P14416 whole entry): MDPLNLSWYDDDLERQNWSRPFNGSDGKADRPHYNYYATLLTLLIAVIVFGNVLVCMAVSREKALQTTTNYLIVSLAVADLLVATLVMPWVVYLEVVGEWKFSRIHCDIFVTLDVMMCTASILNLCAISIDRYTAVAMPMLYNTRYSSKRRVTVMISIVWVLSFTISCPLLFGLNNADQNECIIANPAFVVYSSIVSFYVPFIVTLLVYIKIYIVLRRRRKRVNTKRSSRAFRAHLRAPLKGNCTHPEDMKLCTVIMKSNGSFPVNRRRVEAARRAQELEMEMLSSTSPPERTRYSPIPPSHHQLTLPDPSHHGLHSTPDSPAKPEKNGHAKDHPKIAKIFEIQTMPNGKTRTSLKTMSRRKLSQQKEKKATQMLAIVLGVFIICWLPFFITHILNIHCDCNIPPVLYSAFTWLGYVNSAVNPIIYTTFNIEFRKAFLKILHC
Sequence of human recombinant D3 receptor (P35462 whole entry): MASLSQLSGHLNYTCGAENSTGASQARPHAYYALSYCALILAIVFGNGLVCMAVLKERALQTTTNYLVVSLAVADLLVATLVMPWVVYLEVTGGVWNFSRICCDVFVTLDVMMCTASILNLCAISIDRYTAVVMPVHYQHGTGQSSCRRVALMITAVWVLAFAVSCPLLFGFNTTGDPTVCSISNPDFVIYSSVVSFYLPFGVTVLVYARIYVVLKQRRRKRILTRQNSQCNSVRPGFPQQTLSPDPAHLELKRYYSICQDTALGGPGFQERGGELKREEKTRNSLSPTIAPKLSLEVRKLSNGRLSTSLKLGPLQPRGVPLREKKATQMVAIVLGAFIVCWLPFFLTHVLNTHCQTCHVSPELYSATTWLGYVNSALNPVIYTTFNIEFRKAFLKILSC

Row | SMILES | Ki [1] | Ki [2]
1 | Cn1cc2c(C(=O)NN3CCC(CCN4C[C@@H]5C[C@]5(c5cc(C(C)(F)F)on5)C4)CC3)cccc2n1 [Compound I-035] | 0.24 nM | 870 nM
2 | O=C(N[C@H]1CC[C@H](CCN2CCC(c3nccn3-c3ccccn3)CC2)CC1)c1cccc2ncccc12 [Compound I-001] | 3.3 nM | > 1700 nM
3 | CCc1cc([C@]23C[C@H]2CN(CC[C@H]2CC[C@H](NC(=O)Cc4cnn(C)c4)CC2)C3)no1 [Compound I-056] | 0.62 nM | 1000 nM
4 | Cn1cc2c(C(=O)N[C@H]3CC[C@H](CCN4CC5CC5(c5cc(CF)on5)C4)CC3)cccc2n1 (some centres unmarked) [Compound I-028] | 1.9 nM | –
5 | Cn1cc2c(C(=O)N[C@H]3CC[C@](F)(CCN4C[C@@H]5C[C@]5(c5cc(C(C)(F)F)on5)C4)CC3)cccc2n1 [II-1] | 0.42 nM | > 2300 nM
6 | Cc1cc(C23CC2CN(CC[C@H]2CC[C@H](NC(=O)c4cccc5nn(C)cc45)CC2)C3)no1 (some centres unmarked) [Compound I-030] | 2.9 nM | > 1800 nM
7 | CCc1cc([C@]23C[C@H]2CN(CC[C@H]2CC[C@H](NC(=O)COc4cnn(C)c4)CC2)C3)no1 [Compound I-048] | 0.71 nM | 550 nM
8 | CC(=O)c1conc1C1=CCN(CC[C@H]2CC[C@H](NC(=O)c3cccc4nn(C)cc34)CC2)CC1 [Compound I-023] | 0.69 nM | 1700 nM
9 | Cn1cc2c(C(=O)N[C@H]3CC[C@H](CCN4CC5CC5(c5cc(C6CC6)on5)C4)CC3)cccc2n1 (some centres unmarked) [II-2] | 0.2 nM | 380 nM
10 | CCc1cc([C@]23C[C@H]2CN(CC[C@H]2CC[C@H](NC(=O)Cc4cc(C)no4)CC2)C3)no1 [Compound I-055] | 0.23 nM | 850 nM
11 | CCc1cc([C@]23C[C@H]2CN(CC[C@H]2CC[C@H](NC(=O)c4ccc(F)c5nn(C)cc45)CC2)C3)no1 [Compound I-050] | 0.42 nM | 200 nM
12 | O=C(N[C@H]1CC[C@H](CCN2CCC(c3ccnn3-c3ccccc3)CC2)CC1)c1cccc2ncccc12 [Compound I-006] | 4 nM | 1100 nM
13 | Cn1ncc(CC(=O)N[C@H]2CC[C@H](CCN3C[C@@H]4C[C@]4(c4cc(C5CC5)on4)C3)CC2)n1 [II-5] | 0.71 nM | 860 nM
14 | CCc1cc([C@]23C[C@H]2CN(CC[C@H]2CC[C@H](NC(=O)/C=C/c4cnc(C)nc4)CC2)C3)no1 [Compound I-051] | 0.3 nM | 380 nM
15 | CCc1cc([C@]23C[C@H]2CN(CC[C@H]2CC[C@H](NC(=O)Cc4noc(C)n4)CC2)C3)no1 [Compound I-058] | 1.3 nM | 790 nM
16 | O=C(N[C@H]1CC[C@H](CCN2CCC(n3nccc3-c3ccccc3)CC2)CC1)c1cccc2ncccc12 [Compound I-007] | 2.7 nM | > 1800 nM
17 | Cn1cc2c(C(=O)N[C@H]3CC[C@H](CCN4C[C@@H]5C[C@]5(c5cc(C(C)(F)F)on5)C4)CC3)cccc2n1 [Compound I-027] | 0.3 nM | > 1800 nM
18 | CC(F)c1cc(C23CC2CN(CC[C@H]2CC[C@H](NC(=O)c4cccc5nn(C)cc45)CC2)C3)no1 (some centres unmarked) [Compound I-033] | 0.77 nM | –

Now from value to compound:

Row | Ki [1] | Ki [2] | SMILES
19 | 0.12 nM | 32 nM | O=C(N[C@H]1CC[C@H](CCN2CCC(c3nocc3-c3ccccc3)CC2)CC1)c1cccc2ncccc12 [Compound I-002]
20 | 0.83 nM | 220 nM | Cn1cc(OCC(=O)N[C@H]2CC[C@H](CCN3C[C@@H]4C[C@]4(c4cc(C(C)(F)F)on4)C3)CC2)cn1 [Compound I-044]
21 | 0.56 nM | 350 nM | Cc1cnc(CC(=O)N[C@H]2CC[C@H](CCN3C[C@@H]4C[C@]4(c4cc(C(C)(F)F)on4)C3)CC2)o1 [Compound I-040]
22 | 0.082 nM | 220 nM | Cn1cc2c(C(=O)N[C@H]3CC[C@H](CCN4CC=C(c5nocc5C(C)(F)F)CC4)CC3)cccc2n1 [Compound I-024]
23 | 0.69 nM | 350 nM | Cc1cc(CC(=O)N[C@H]2CC[C@H](CCN3CCC(c4nocc4C(C)(F)F)CC3)CC2)on1 [Compound I-008]
24 | 0.95 nM | 230 nM | Cc1ncc(CC(=O)N[C@H]2CC[C@H](CCN3CCC(c4nocc4C4CC4)CC3)CC2)s1 [Compound I-013]
25 | 0.085 nM | 33 nM | CCC(F)(F)c1conc1C1CCN(CC[C@H]2CC[C@H](NC(=O)c3cccc4nn(C)cc34)CC2)CC1 [Compound I-016]
26 | 0.25 nM | 190 nM | Cc1ncccc1C(=O)N[C@H]1CC[C@H](CCN2C[C@@H]3C[C@]3(c3cc(C(C)(F)F)on3)C2)CC1 [Compound I-036]
27 | 0.6 nM | 160 nM | O=C(N[C@H]1CC[C@H](CCN2CCC(c3nocc3C3CC3)CC2)CC1)c1cccc2ncccc12 [Compound I-004]
28 | 0.13 nM | 67 nM | CCC(F)(F)c1conc1C1CCN(CC[C@H]2CC[C@H](NC(=O)Cc3nnc(C)s3)CC2)CC1 [Compound I-015]
29 | 0.39 nM | 300 nM | Cn1ncc(CC(=O)N[C@H]2CC[C@H](CCN3C[C@@H]4C[C@]4(c4cc(C(C)(F)F)on4)C3)CC2)n1 [Compound I-039]
30 | 0.37 nM | 310 nM | CCC(F)(F)c1conc1C1(F)CCN(CC[C@H]2CC[C@H](NC(=O)Cc3cnc(C)s3)CC2)CC1 [Compound I-020]
31 | 2.2 nM | 1100 nM | Cc1ncc(CC(=O)N[C@H]2CC[C@H](CCN3CC4CC4(c4cc(CF)on4)C3)CC2)s1 (some centres unmarked) [Compound I-029]
32 | 0.77 nM | 550 nM | CCc1cc([C@]23C[C@H]2CN(CC[C@H]2CC[C@H](NC(=O)Cc4nnc(C)s4)CC2)C3)no1 [Compound I-059]
33 | 0.2 nM | 88 nM | Cc1ncc(CC(=O)N[C@H]2CC[C@H](CCN3CCN(c4nocc4C(C)(F)F)CC3)CC2)s1 [Compound I-014]
34 | 0.21 nM | 52 nM | Cn1cc2c(C(=O)N[C@H]3CC[C@H](CCN4CCN(c5nocc5C(C)(F)F)CC4)CC3)cccc2n1 [Compound I-017]
35 | 0.65 nM | 230 nM | Cc1ncc(CC(=O)N[C@H]2CC[C@H](CCN3CCC(c4nocc4C(C)(F)F)CC3)CC2)s1 [Compound I-010]
36 | 0.36 nM | 730 nM | Cn1cc(CC(=O)N[C@H]2CC[C@H](CCN3C[C@@H]4C[C@]4(c4cc(C5CC5)on4)C3)CC2)cn1 [II-3]
37 | 1.2 nM | 780 nM | CCc1cc([C@]23C[C@H]2CN(CC[C@H]2CC[C@H](NC(=O)Cc4ncc(C)o4)CC2)C3)no1 [Compound I-054]
38 | 0.093 nM | 36 nM | O=C(N[C@H]1CC[C@H](CCN2CCC(c3nocc3-c3cccc(F)c3)CC2)CC1)c1cccc2ncccc12 [Compound I-003]
